Data: ChEMBL document CHEMBL3808308, “Synergistic potentiation of (-)-lomaiviticin A cytotoxicity by the ATR inhibitor VE-821” (Bioorg Med Chem Lett, 2016)
Active and inactive are the calls of the source. No cut-off for these calls is given here.

Columns and labels:
[1] = test system: K562; test: Potentiation of 250 pM (-)-lomaiviticin A-induced cytotoxicity against human K562 cells assessed as decrease in cell viability at 10 uM after 48 hrs by cell titer-glo luminescence assay; format: functional, cell-based
[2] = Selectivity ratio of LC50 for chinese hamster VC8 cells expressing BRCA2 to LC50 for BRCA2-deficient chinese hamster VC8 cells; format: functional, Cricetulus griseus
[3] = test system: K562; test: Cytotoxicity against human K562 cells assessed as effect on cell viability at 0.05 to 0.5 nM after 24 to 48 hrs by cell titer-glo luminescence assay; format: functional
[4] = test system: K562; test: Cytotoxicity against human K562 cells assessed as decrease in cell viability at 1 nM after 48 hrs by cell titer-glo luminescence assay; format: functional
[5] = Cytotoxicity against BRCA2-deficient chinese hamster VC8 cells assessed as decrease in cell viability by clonogenic survival assay; format: functional; conditions: Cricetulus griseus, V-C8; read-out: LC50 (the source's name)
[6] = test system: U-251; test: Selectivity ratio of LC50 for human U251 cells expressing PTEN to LC50 for PTEN-deficient human U251 cells; format: functional
[7] = test system: K562; test: Induction of apoptosis in human K562 cells assessed as gammaH2AX/53BP1 levels up to 250 pM after 48 hrs by DAPI staining based immunofluorescence microscopy; format: functional, cell-based
[8] = test system: U-251; test: Cytotoxicity against PTEN-deficient human U251 cells assessed as decrease in cell viability by clonogenic survival assay; format: functional; conditions: read-out: LC50 (the source's name)
[9] = test system: K562; test: Induction of DNA double-strand breaks in human K562 cells at 50 to 500 pM after 24 hrs by neutral comet assay; format: functional, cell-based
[10] = test system: K562; test: Cytotoxicity against human K562 cells assessed as decrease in cell viability after 24 to 48 hrs by cell titer-glo luminescence assay; format: cell-based
[11] = Cytotoxicity against human K562 cells assessed as decrease in cell viability after 48 hrs by cell titer-glo luminescence assay; format: cell-based; conditions: read-out: ED50

SMILES	Activity [1]	RatioLC50 [2]	Activity [3] [%]	Activity [4] [%]	CC50 [5] [nM]	RatioLC50 [6]	Activity [7]	CC50 [8] [nM]	Activity [9]	Activity [10]	CC50 at 48 h [11] [nM]
CC[C@@]1(O[C@H]2C[C@H](OC)[C@@H](O)[C@H](C)O2)[C@H](O[C@H]2C[C@@H](O)[C@H](N(C)C)[C@@H](C)O2)c2c(c3c(=O)c4c(O)ccc(O)c4c(=O)c=3c2=[N+]=[N-])C(=O)[C@@H]1[C@H]1C(=O)c2c(c(=[N+]=[N-])c3c(=O)c4c(O)ccc(O)c4c(=O)c2=3)[C@@H](O[C@H]2C[C@@H](O)[C@H](N(C)C)[C@@H](C)O2)[C@@]1(CC)O[C@H]1C[C@H](OC)[C@@H](O)[C@H](C)O1	Active	>11.6	<5	34	0.0015	>11.6	Active	0.002	inactive		
O=C(CCCCCCC(=O)Nc1ccccc1)NO [VORINOSTAT]										Dose-dependent effect	1250
